# Legend:
# 18:1 content = test: Fatty acid analysis of leaf 18:1 content (gas chromatography); format: in vivo, Arabidopsis
# Description: FIG. 6A-B depicts an abbreviated scheme for lipid biosynthesis and in plant oleic acid levels after 18:1 infiltrations. (A) De novo fatty acid (FA) synthesis occurs exclusively in the plastids of all plant cells and leads to the synthesis of palmitic acid (16:0)-acyl carrier protein (ACP) and oleic acid (18:1)-ACP. These FAs enter glycerolipid synthesis either via the prokaryotic pathway in the inner envelope of chloroplasts or are exported out of plastids as CoA thioesters to enter the eukaryotic glycerolipid synthesis pathway. Symbols for various components are: CoA, coenzyme A; Lyso-PA, acyl-G3P; PA, phosphatidic acid; PG, phosphatidylglycerol; MGDG, monogalactosyldiacylglycerol; DGDG, digalactosyldiacylglycerol; SL, sulfolipid; DAG, diacylglycerol; DHAP, dihydroxyacetone phosphate. (B) In planta oleic acid levels after 18:1 infiltrations. The HRT ssi2 sid2 leaves were infiltrated with water or 1 mM oleic acid and the fatty acid levels were determined 24 h post treatment from treated and untreated leaves. The 18:1 levels from the untreated wild type plant (HRT) were used as a control.
# Fatty acid analysis and oleic acid infiltration. Fatty acid analysis was carried out using gas chromatorgraphy. Oleic acid (Sigma) was dissolved in water and injected into leaves using a needle-less syringe. […]
# [1] = system: Turnip Crinkle Virus (TCV); test: TCV replication and systemic spread after 18:1 infiltration of leaves; format: in vivo, Arabidopsis
# Description: (A) RT-PCR analyses showing basal level expression of HRT in HRT ssi2 act1 and HRT ssi2 gly1 plants. The level of β-tubulin was used as an internal control to normalize the amount of cDNA template. The 18:1 levels are a mean of six independent replicates. (B) Systemic spread of TCV to uninoculated tissue in TCV-inoculated plants. RNA was extracted from the uninoculated tissues at 18 dpi and analyzed for the presence of the viral transcripts (TCV-U). Ethidium bromide staining of rRNA was used as a loading control. (C) Typical morphological phenotypes of mock-and TCV-inoculated HRT ssi2 act1 and HRT ssi2 gly1 plants. […] Plants were photographed at 8 dpi. (D) Effect of 18:1 infiltrations on viral replication in the inoculated leaf. Oleic acid (O, 1 mM) or water (W) was injected 24 h before or after (last two lanes) TCV inoculation and the samples were harvested 3 days post inoculation (dpi).
# (§1) Pathogen inoculations. Transcripts synthesized in vitro from a cloned cDNA of TCV using T7 RNA polymerase were used for viral infections. For inoculations, the viral transcript was suspended at a concentration of 0.05 μg/μl in inoculation buffer, and the inoculation was performed. After viral inoculations, the plants were transferred to a Conviron MTR30 reach-in chamber maintained at 22° C., 65% relative humidity and 14 hour photoperiod. Inoculations with Pseudomonas syringae were conducted.
# Fatty acid analysis and oleic acid infiltration. Fatty acid analysis was carried out using gas chromatorgraphy. Oleic acid (Sigma) was dissolved in water and injected into leaves using a needle-less syringe. To determine the 18:1 concentration required to elevate the leaf 18:1 content in ssi2 plants to wild-type levels, 50 μm to 10 mM were injected into ssi2 leaves followed by fatty acid profiling. A concentration of 500 μm to 1 mM was considered optimal, with similar results being obtained upon injection of either of these concentrations.
# RNA extraction, RT-PCR and northern analyses. Small-scale extraction of RNA from one or two leaves was performed in the TRIzol reagent (Invitrogen, Gaihersburg, Md.) following the manufacturer's instructions. RNA quality and concentration were determined by gel electrophoresis and determination of A260. Northern blot analysis and synthesis of random primed probes for PR-1 were carried out. Reverse transcription (RT) and first strand cDNA synthesis was carried out using Superscript II (Invitrogen). Two-to-three independent RNA preparations were used for RT-PCR and each of these were analyzed at least twice by RT-PCR. The RT-PCR was carried out for 35 cycles in order to determine absolute levels of transcripts. The number of amplification cycles was reduced to 22-25 in order to evaluate and quantify any differences among transcript levels before they reached saturation. […]
# [2] = system: Turnip Crinkle Virus (TCV); test: TCV resistance after exogenous application of SA or glycerol; format: in vivo, Arabidopsis; settings: for resistance to TCV (percentage of resistant plants): inoculated 48 h post-treatment, analyzed 3 weeks post-inoculation
# Description: (§2) (A) PR-1 gene expression and 18:1 content in water (W)- and glycerol (G)-treated plants. Ethidium bromide staining of rRNA was used as a loading control. The 18:1 levels are a mean of six independent replicates. (B) RT-PCR analyses showing expression of HRT and SSI4 genes in water- and glycerol-treated plants shown in A. The level of β-tubulin was used as an internal control to normalize the amount of cDNA template. (C) Visible HR formation in water (W)- and glycerol (G)-treated HRT sid2, HRT pad4 and HRT act1 plants at 3 dpi. (D) Percentage TCV resistant plants obtained after exogenous application of water, SA or glycerol. Wild type (HRT or hrt), HRT sid2, HRT pad4 and HRT act1 plants were inoculated 48 h post-treatment and resistance was analyzed 3-weeks post-inoculation. The number of plants tested are indicated above each bar. Asterisk indicates 100% susceptibility. (E) Systemic spread of TCV to uninoculated tissue in TCV-inoculated plants. RNA was extracted from the uninoculated tissues at 18 dpi and analyzed for the presence of the viral transcripts (TCV-U). Ethidium bromide staining of rRNA was used as a loading control. (F) Typical morphological phenotypes of TCV-inoculated plants that were sprayed either with water (W) or glycerol (G) prior to inoculation. Plants were photographed at 18 dpi.
# as §1
# (§3) SA and glycerol treatments. SA and glycerol treatments were carried out by spraying 500 μM and 50 mM solutions, respectively, prepared in sterile water.
# [3] = system: Turnip Crinkle Virus (TCV); settings: exogenous SA prior to dark-treatment of Di-17 plants; cited from earlier work
# HRT = HRT transcript levels (RT-PCR) in glycerol-treated plants; format: in vivo, Arabidopsis; settings: exogenous glycerol
# Description: as §2, with “Asterisk indicates 100% susceptibility. (E) Systemic spread of TCV to uninoculated tissue in TCV-inoculated plants.” left out, “Ethidium bromide staining of rRNA was used as a loading control. (F) Typical morphological phenotypes of TCV-inoculated plants that were sprayed either with water (W) or glycerol (G) prior to inoculation. Plants were photographed at 18 dpi.” left out
# (§4) RNA extraction, RT-PCR and northern analyses. […] RNA quality and concentration were determined by gel electrophoresis and determination of A260. […] Two-to-three independent RNA preparations were used for RT-PCR and each of these were analyzed at least twice by RT-PCR. […] The number of amplification cycles was reduced to 22-25 in order to evaluate and quantify any differences among transcript levels before they reached saturation.
# [4] = system: Turnip Crinkle Virus (TCV); test: Visible HR formation to TCV in glycerol-treated plants; format: in vivo, Arabidopsis; settings: glycerol-treated wild-type, HRT sid2 and HRT pad4 plants; 3 dpi
# Description: as §2
# Pathogen inoculations. […]
# PR-1 = PR-1 gene expression (northern analysis) in glycerol-treated plants; format: in vivo, Arabidopsis; settings: exogenous glycerol
# Description: as §2, with “Asterisk indicates 100% susceptibility. (E) Systemic spread of TCV to uninoculated tissue in TCV-inoculated plants.” left out, “Ethidium bromide staining of rRNA was used as a loading control. (F) Typical morphological phenotypes of TCV-inoculated plants that were sprayed either with water (W) or glycerol (G) prior to inoculation. Plants were photographed at 18 dpi.” left out
# as §4
# SA levels = SA levels after glycerol application; format: in vivo, Arabidopsis; settings: dependent on functional SID2 protein
# Method: as §3
# Exogenous application of glycerol confers resistance to TCV in an SA-independent but ACT1-dependent manner. Additional evidence supporting a role for 18:1 in regulating HRT gene expression was obtained by glycerol treatment of several genotypes. […] This is because the act1 plants are blocked in the step leading to the acylation of glycerol-3-phosphate with 18:1. […] Since the upregulation of HRT abolishes visible HR to TCV, the development of HR in various glycerol-treated plants was monitored. […] Thus, although the SA-mediated induction of HRT is dependent on PAD4, 18:1-mediated induction of HRT is independent of PAD4.
SMILES,"18:1 levels after exogenous application of 18:1 (18:1 content; HRT ssi2 sid2, site of infiltration vs untreated leaves, 24 h post treatment)",TCV replication in inoculated leaf ([1]; 18:1 infiltrated 24 h after TCV inoculation),"increase in amount of TCV transcript in inoculated leaf ([1]; HRT ssi2 sid2 leaves, 18:1 infiltrated before TCV inoculation)","systemic spread of the virus ([1]; HRT ssi2 sid2 plants, 18:1 injections)","TCV replication (TCV transcript) in the inoculated leaves ([1]; wild-type Di-17 or Col-0 leaves, 18:1 (1 mM) vs water injected 24 h before TCV inoculation, 3 dpi)",resistance to TCV (percentage of resistant plants) ([2]; HRT act1 plants),resistance to TCV (percentage of resistant plants) ([2]; HRT pad4 plants),dark-triggered susceptibility to TCV [3],HRT transcript levels (HRT; HRT act1 plants),"HRT transcript levels (HRT; wild-type, HRT sid2 and HRT pad4 plants)",visible HR to TCV [4],PR-1 gene expression (PR-1; HRT sid2 plants),PR-1 gene expression (PR-1; wild-type and HRT pad4 plants),"18:1 content (18:1 content; exogenous glycerol (50 mM spray), wild-type, HRT sid2 and HRT pad4 plants)",resistance to TCV (percentage of resistant plants) ([2]; Col-0 (hrt) plants),"more TCV-resistant plants in comparison to SA pretreatment ([2]; HRT sid2 plants, glycerol vs SA pretreatment) [%]",resistance to TCV (percentage of resistant plants) ([2]; HRT sid2 plants),SA levels (SA levels)
"CCCCCCCC/C=C\CCCCCCCC(=O)O [18:1, oleic acid]",only normalized 18:1 levels locally,remained unaffected,6-8 fold,did not allow systemic spread of the virus,did not appear to alter TCV replication,,,,,,,,,,,,,
"O=C(O)c1ccccc1O [SA, Salicylic acid, reference compound]",,,,,,substantial increase,only a marginal increase,prevents dark-triggered susceptibility,,,,,,,,,,
OCC(O)CO [glycerol],,,,,,not in HRT act1 or Col-0 plants,significantly enhanced resistance,,not in HRT act1,induced HRT transcript levels,developed no visible HR,failed to induce PR-1 gene expression,upregulation of PR-1 gene expression,lowered 18:1 content,not in HRT act1 or Col-0 plants,~30,enhanced resistance to TCV,induced high levels of SA
